Laboratory results taken from patent US6812237B2, “N-substituted peptidyl nitriles as cysteine cathepsin inhibitors” (Novartis AG, priority 2000, dated 2004).

Experiments:
[1] = molecular target: recombinant human cathepsin B (Homo sapiens, UniProt P07858); test: in vitro cathepsin B assay; type: biochemical; settings: Z-Arg-Arg-AMC substrate, pH 5.8 phosphate buffer, fluorescence at 20 minutes
Experimental: The cathepsin inhibitory effects of the compound of the invention can be determined in vitro by measuring the inhibition of e.g. recombinant human cathepsins B, L and S. The buffer used in the assays is a 0.1 M pH 5.8 phosphate buffer containing EDTA (1.33 mM), DTT (2.7 mM) and Brij (0.03%).
The in vitro assays are carried out as follows:
To a microtiter well is added 100 uL of a 20 uM solution of inhibitor in assay buffer followed by 50 uL of a 6.4 mM solution of Z—Arg—Arg—AMC substrate (Peptides International) in assay buffer. After mixing, 50 uL of a 0.544 nM solution of recombinant human cathepsin B in assay buffer is added to the well, yielding a final inhibitor concentration of 10 uM. Enzyme activity is determined by measuring fluorescence of the liberated aminomethylcoumarin at […] using 380 nm excitation, at 20 minutes. % Enzyme inhibition is determined by comparison of this activity to that of a solution containing no inhibitor. Compounds are subsequently subjected to a dose response curve analysis to determine IC50 values.

| SMILES | melting point | IC50 [1] |
| --- | --- | --- |
| C=CCOC(=O)c1cccc(COCC(C#N)NC(=O)[C@H](Cc2cccc(C)c2)Nc2ccc(F)cc2)c1 (stereo in doubt) [Example 5, N-[2-[3-(allyloxycarbonyl)-benzyloxy]-1(S)-cyanoethyl]-3-methyl-Nα-(4-fluorophenyl)-L-phenylalaninamide] | 86 to 88 °C | – |
| Cc1cccc(C[C@H](Nc2ccccc2)C(=O)NC(C#N)COCc2cccc(C(=O)O)c2)c1 (stereo in doubt) [Example 6, N-[2-(3-Carboxy-benzyloxy)-1(S)-cyanoethyl]-3-methyl-Nα-phenyl-L-phenylalaninamide] | 135 to 137 °C | ~100 nM |
| N#C[C@@H](COCc1cccc(C(=O)O)c1)NC(=O)C1(Nc2ccccc2)CCCCC1 [Example 14 (a), N-[2-(3-carboxybenzyloxy)-1-(S)-cyanoethyl]-1-(phenylamino)-cyclohexanecarboxamide] | 80 to 83 °C | – |
| N#CCNC(=O)CN(c1ccccc1)C1Cc2ccccc2C1 [Example 14 (b), N-(cyanomethyl)-Nα-(phenyl)-indan-2-yl-glycine-amide] | 169 to 170 °C | – |
